Assay [1] deals with cytochrome c. Briefly: Cytochrome c reduction assay. It is filed as biochemical. The settings on record: 100 μM compound, 10 μM cytochrome c, absorbance 550 nm. As to the method: The rate of cytochrome c (10 μM) reduction was measured by monitoring the change in absorbance at 550 nm. Briefly the reaction was initiated by addition of 100 μM of the invention compounds to a mixture containing 50 mM phosphate buffer, 0.1 mM EDTA, pH 7.8, and 10 μM cytochrome c (Sigma, St. Louis, Mo. USA). For cytochrome c reduction by superoxide, xanthine oxidase (0.01 IU/mL) (Sigma, St. Louis, Mo. USA) was used in presence of xanthine (50 μM).

Assay [2] relates to bovine heart mitochondrial membranes. Description: Thiobarbituric acid reactive species (TBARS) assay. Type of assay: biochemical. The settings on record: H2O2 generated using glucose oxidase. Here is the method: Lipid peroxidation by hydrogen peroxide in bovine heart mitochondrial membranes was determined by measuring the amount of thiobarbituric acid reactive substances released. Bovine heart mitochondria (1 mg protein) prepared as described by Smith (38) were added to 800 μL of 50 mM phosphate buffer, pH 8.0, and subjected to oxidative stress by the addition of 25 mM glucose and 1 U/mL glucose oxidase from Aspergillus niger. Samples were incubated with or without test compounds at 37° C. for 30 minutes. Two hundred μL each of 1% (w/v) thiobarbituric acid and 35% (v/v) perchloric acid, as well as 0.1% (w/v) butylated hydroxytoluene (from a 2% stock solution in DMSO) were added. Samples were heated at 100° C. for 15 minutes. One-mL aliquots of each sample were taken and diluted in 2 mL of water, then extracted once with 2 mL of n-butanol. […] TBARS were determined fluorometrically from the emission spectrum (λex 515 nm; λem 550 nm) using a Varian fluorimeter. The malondialdehyde concentration was determined based on a standard curve created using serial dilutions of 10 mM 1,1,3,3-tetraethoxypropane hydrolyzed in 1% (v/v) H2SO4 at 4° C. overnight. The malondialdehyde concentration was expressed as nmoles manoldialdehyde per mg protein. Protein in aliquots of the homogenates was determined by the bicinchoninic acid method.

For assay [3], the system named is CEM leukemia cells. Description: C11-BODIPY581/591 oxidation in cell culture (lipid peroxidation). Type of assay: cell-based, human. The following applies: 2.5 or 1 μM, pretreatment 4 or 24 hours, glutathione depleted. As to the method: Lipid peroxidation in CEM leukemia cells was detected by utilizing the oxidant-sensitive lipophilic probe C11 BODIPY^581/591. Briefly, CEM cells (5×10^5 cell/mL) were treated with the test compounds at final concentrations of 1 and 2.5 μM, and incubated at 37° C. for 4 or 24 h in a humidified atmosphere containing 5% CO2 in air. Cells were treated with 500 nM C11 BODIPY^581/591 in phenol red-free RPMI-1640 media and incubated at 37° C. in the dark for 30 minutes. The cells were washed twice with phosphate buffered saline and oxidative stress was induced with 5 mM DEM in phenol red-free RPMI-1640 media for 90 minutes. Treated cells were collected by centrifugation at 300×g for 3 minutes and then washed twice with phosphate buffered saline. Cells were resuspended in 250 μL of phosphate buffered saline and were analyzed by FACS (FACS Calibur flow cytometer, Becton Dickinson) to monitor the change in intensity of the C11 BODIPY^581/591-green (oxidized) fluorescence signal.

“Also recorded” adds a separate entry of the source.

For `Cc1nc(N(C)C)nc(CCCCCCCCCCO)c1O` [Compound A, 2-N,N-dimethylamino-5-hydroxy-4-methyl-6-(10-hydroxydecyl)-pyrimidine], in assay [1], the “reduction of cytochrome c” value was “clearly reduce cytochrome c”.
In the case of `Cc1nc2c(c(CC[C@](C)(O)CCC[C@H](C)CCC[C@H](C)CCCC(C)C)c1O)CCN2C` [Compound C, 4-((3R,7R,11R)-3-hydroxy-3,7,11,15-tetramethylhexadecyl)-1,6-dimethyl-2,3-dihydro-1H-pyrrolo[2,3-b]pyridine-5-ol], in assay [2], the “preventing TBARS formation” value is “more effective in preventing TBARS formation”. Besides, in assay [3], the “protection against lipid peroxidation in cells (C11-BODIPY581/591 green fluorescence)” value was “better protection against lipid peroxidation than α-tocopherol in a concentration and time-dependent fashion; also recorded: clearly superior to α-tocopherol in quenching lipid peroxidation in a time- and dose-dependent fashion”.

The values above are taken from patent US8952025B2, “Multifunctional radical quenchers and their uses” (Arizona Board of Regents, A Body Corporate of the State of …, priority 2010, dated 2015).
